Experimental data published in patent US20100137449A1, “SUBSTITUTED 1,3-CYCLOPENTADIONE MULTI-TARGET PROTEIN KINASE MODULATORS OF CANCER, ANGIOGENESIS AND THE INFLAMMATORY PATHWAYS ASSOCIATED THEREWITH” (METAPROTEOMICS, LLC, priority 2007, published 2010).

Tests used:
Assay in all cases: KinaseProfiler Assay
CHK2(h) = CHK2(h) (Homo sapiens, UniProt O96017)
PKA(h) = PKA(h) (Homo sapiens, UniProt P17612)
GSK3α(h) = GSK3α(h) (Homo sapiens, UniProt P49840)
MSSK1(h) = MSSK1(h) (Homo sapiens, UniProt Q9UPE1)
EGFR(T790M)(h) = EGFR(T790M)(h) (Homo sapiens, UniProt P00533, T790M)
Hck(h) = Hck(h) (Homo sapiens, UniProt P08631)
Hck(h), sequence (P08631 whole entry): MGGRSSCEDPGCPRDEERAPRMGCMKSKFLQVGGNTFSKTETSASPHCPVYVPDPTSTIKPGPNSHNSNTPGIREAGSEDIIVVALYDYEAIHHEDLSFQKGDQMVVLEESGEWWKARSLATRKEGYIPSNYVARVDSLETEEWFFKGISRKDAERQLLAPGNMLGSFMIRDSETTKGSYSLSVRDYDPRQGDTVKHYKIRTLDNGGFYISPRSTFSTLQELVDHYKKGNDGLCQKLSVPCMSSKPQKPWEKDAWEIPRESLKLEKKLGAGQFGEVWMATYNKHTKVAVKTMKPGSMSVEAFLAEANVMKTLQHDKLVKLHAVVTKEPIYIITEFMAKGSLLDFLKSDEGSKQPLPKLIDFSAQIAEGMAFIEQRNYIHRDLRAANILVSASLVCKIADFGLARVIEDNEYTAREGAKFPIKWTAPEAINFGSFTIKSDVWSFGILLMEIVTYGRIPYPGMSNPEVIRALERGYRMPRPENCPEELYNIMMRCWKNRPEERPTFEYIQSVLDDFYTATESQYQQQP

PI 3-Kinaseβ(h) = PI 3-Kinaseβ(h) (Homo sapiens, UniProt P42338)
MRCKβ(h) = MRCKβ(h) (Homo sapiens, UniProt Q9Y5S2)
MRCKβ(h), sequence (Q9Y5S2 whole entry): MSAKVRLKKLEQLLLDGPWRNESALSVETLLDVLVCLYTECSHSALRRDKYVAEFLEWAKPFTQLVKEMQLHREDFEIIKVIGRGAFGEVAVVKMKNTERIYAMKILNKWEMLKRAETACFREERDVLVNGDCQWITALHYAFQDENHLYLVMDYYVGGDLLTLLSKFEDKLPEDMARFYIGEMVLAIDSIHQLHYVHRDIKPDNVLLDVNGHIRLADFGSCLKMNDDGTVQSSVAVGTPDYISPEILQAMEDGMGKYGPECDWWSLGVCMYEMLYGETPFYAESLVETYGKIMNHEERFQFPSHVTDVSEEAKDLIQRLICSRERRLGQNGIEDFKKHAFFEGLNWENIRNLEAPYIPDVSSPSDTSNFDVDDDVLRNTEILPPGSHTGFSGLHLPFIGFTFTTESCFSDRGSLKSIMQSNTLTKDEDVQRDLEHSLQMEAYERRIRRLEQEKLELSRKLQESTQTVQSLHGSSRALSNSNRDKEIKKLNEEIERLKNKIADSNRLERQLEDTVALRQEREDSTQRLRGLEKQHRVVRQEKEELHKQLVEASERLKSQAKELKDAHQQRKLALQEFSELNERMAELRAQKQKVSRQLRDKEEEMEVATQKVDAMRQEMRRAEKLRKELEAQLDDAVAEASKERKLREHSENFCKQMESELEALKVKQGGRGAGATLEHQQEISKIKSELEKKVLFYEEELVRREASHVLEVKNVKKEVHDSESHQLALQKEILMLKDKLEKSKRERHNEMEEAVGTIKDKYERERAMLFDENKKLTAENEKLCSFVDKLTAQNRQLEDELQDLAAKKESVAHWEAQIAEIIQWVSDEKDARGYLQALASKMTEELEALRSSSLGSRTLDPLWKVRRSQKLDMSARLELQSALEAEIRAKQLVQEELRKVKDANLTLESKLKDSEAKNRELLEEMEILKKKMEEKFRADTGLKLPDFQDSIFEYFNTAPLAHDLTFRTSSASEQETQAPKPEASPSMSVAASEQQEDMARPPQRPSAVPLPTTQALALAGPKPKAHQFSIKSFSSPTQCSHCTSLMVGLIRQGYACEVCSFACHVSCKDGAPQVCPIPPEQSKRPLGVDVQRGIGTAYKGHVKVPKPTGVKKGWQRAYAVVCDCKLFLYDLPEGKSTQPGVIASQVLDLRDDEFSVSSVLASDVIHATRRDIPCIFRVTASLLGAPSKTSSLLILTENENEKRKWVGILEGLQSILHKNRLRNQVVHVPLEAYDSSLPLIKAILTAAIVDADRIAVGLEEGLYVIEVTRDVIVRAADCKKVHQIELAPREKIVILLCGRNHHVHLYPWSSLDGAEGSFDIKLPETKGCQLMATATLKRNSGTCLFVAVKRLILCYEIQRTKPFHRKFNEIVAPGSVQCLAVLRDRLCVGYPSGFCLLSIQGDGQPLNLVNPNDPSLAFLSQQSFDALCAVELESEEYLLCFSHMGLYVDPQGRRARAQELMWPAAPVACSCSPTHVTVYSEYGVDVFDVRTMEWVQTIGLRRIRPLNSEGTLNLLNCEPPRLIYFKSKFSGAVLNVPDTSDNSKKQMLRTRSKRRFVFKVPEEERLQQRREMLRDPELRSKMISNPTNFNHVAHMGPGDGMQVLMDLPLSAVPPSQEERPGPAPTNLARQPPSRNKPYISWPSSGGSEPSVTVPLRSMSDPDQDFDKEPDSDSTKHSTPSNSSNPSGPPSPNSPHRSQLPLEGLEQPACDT

CDK2/cyclinE(h) = CDK2/cyclinE(h) (Homo sapiens, UniProt P24941)
Abl(Q252H)(h) = Abl(Q252H)(h) (Homo sapiens, UniProt P00519, Q252H)
BrSK2(h) = molecular target: T1, BrSK2(h) (Homo sapiens, UniProt Q8IWQ3)
T1 sequence (Q8IWQ3 1-736): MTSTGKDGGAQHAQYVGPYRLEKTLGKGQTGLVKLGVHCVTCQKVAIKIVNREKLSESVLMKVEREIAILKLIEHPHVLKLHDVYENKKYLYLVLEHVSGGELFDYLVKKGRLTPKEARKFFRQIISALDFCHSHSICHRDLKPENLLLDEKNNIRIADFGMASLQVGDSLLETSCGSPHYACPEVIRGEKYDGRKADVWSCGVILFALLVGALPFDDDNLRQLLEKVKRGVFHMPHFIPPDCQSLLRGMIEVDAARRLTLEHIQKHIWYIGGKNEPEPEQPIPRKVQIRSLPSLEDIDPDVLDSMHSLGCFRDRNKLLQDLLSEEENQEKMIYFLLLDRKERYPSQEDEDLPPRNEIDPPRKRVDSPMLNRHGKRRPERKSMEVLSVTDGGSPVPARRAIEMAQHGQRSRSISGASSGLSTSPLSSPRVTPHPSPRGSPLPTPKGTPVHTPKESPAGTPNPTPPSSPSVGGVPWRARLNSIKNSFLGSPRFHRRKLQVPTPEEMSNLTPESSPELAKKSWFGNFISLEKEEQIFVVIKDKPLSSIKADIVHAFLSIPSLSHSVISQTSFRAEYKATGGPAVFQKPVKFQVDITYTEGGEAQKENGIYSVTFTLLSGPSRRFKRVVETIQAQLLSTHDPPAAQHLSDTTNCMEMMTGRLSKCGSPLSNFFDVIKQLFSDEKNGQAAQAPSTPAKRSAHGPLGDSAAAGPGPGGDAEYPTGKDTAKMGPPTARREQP

Tie2(R849W)(h) = Tie2(R849W)(h) (Homo sapiens, UniProt Q02763, R849W)
Tie2(R849W)(h), sequence (Q02763 23-1124 R849W): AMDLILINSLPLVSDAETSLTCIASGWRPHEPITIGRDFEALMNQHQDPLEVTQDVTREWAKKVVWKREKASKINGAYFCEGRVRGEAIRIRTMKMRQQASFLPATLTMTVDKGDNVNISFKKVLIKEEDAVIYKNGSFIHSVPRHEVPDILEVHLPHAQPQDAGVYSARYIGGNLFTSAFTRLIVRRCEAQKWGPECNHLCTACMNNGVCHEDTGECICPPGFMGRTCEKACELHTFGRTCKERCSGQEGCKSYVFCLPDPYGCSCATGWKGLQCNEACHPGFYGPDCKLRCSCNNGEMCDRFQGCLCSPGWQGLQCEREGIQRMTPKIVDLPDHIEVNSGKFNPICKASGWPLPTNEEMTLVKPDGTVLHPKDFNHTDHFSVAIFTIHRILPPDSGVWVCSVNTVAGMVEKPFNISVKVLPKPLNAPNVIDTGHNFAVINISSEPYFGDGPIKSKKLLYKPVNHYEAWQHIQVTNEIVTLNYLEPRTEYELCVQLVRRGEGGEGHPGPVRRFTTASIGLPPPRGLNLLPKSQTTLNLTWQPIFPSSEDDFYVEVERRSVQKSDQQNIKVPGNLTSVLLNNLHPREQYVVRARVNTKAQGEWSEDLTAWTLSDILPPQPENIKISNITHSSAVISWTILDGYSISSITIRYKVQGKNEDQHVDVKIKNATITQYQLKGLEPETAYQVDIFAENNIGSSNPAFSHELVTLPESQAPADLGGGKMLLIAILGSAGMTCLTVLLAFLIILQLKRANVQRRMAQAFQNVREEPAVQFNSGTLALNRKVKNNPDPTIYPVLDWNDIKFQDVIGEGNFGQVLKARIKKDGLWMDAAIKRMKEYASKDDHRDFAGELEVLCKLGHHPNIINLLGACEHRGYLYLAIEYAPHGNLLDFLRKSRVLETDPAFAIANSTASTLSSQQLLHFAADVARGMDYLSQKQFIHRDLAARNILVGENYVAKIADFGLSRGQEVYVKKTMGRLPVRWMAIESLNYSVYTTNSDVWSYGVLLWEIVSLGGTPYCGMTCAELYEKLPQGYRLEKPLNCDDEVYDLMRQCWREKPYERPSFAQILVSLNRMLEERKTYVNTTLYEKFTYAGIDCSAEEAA

CaMKIIβ(h) = CaMKIIβ(h) (Homo sapiens, UniProt Q13554)
CaMKIIβ(h), sequence (Q13554 whole entry): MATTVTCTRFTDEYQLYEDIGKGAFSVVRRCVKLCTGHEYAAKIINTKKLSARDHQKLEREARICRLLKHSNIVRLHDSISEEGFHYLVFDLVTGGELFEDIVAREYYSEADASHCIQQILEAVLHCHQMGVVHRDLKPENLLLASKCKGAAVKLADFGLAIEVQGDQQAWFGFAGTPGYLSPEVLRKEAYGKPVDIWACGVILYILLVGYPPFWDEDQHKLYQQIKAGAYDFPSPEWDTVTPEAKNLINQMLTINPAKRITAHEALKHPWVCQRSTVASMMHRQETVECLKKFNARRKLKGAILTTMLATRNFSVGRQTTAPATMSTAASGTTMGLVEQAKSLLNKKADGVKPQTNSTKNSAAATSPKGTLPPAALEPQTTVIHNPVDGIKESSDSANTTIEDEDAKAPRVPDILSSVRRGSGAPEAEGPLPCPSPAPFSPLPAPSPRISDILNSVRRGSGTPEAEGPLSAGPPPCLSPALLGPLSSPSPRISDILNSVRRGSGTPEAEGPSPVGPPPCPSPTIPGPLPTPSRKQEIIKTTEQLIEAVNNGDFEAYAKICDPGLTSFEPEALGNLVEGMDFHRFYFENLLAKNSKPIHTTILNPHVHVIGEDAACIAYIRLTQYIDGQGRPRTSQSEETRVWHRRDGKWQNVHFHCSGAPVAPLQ

CHK2(h), sequence (O96017 whole entry): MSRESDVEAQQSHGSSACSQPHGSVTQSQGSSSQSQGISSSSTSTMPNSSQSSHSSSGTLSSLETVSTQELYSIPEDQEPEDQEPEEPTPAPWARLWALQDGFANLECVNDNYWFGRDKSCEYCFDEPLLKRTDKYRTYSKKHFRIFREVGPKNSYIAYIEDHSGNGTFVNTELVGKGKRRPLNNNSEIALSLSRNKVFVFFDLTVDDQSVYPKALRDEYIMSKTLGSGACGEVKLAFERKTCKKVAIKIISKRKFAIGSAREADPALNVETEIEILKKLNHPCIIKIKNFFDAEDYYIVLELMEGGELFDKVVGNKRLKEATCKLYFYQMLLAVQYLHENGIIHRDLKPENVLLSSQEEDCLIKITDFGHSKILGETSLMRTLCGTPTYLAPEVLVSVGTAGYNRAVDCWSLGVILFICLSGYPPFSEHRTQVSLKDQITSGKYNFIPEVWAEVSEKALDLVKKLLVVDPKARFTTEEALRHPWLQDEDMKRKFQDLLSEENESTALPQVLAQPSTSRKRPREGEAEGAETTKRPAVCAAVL
GSK3α(h), sequence (P49840 whole entry): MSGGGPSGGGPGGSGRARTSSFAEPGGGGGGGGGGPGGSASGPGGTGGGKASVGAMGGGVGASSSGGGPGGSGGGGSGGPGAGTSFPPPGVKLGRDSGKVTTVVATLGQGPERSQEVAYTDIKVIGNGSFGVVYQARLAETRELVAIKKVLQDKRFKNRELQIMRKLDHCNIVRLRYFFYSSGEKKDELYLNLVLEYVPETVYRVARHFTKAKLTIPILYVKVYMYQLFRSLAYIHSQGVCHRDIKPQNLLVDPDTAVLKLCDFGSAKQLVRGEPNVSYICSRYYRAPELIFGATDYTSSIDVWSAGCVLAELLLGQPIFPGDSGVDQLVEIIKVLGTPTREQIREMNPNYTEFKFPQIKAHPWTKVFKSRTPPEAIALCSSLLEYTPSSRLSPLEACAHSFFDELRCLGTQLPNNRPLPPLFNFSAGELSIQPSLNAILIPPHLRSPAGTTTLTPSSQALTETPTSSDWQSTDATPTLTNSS

CC(C)CCC(=O)[C@]1(O)C(O)=C(C(=O)C(C)C)C(=O)[C@H]1CCC(C)C [TH2, tetrahydroiso-cohumulone]
kinase inhibition (CHK2(h); 1 μg/ml): 107% of control
kinase inhibition (CHK2(h); 5 μg/ml): 107% of control
kinase inhibition (CHK2(h); 25 μg/ml): 105% of control
kinase inhibition (CHK2(h); 50 μg/ml): 108% of control
kinase inhibition (CHK2(h); 100 μg/ml): 97% of control
kinase inhibition (PKA(h); 1 μg/ml): 131% of control
kinase inhibition (PKA(h); 5 μg/ml): 124% of control
kinase inhibition (PKA(h); 25 μg/ml): 93% of control
kinase inhibition (PKA(h); 50 μg/ml): 94% of control
kinase inhibition (PKA(h); 100 μg/ml): 86% of control
kinase inhibition (GSK3α(h); 1 μg/ml): 94% of control
kinase inhibition (GSK3α(h); 5 μg/ml): 92% of control
kinase inhibition (GSK3α(h); 25 μg/ml): 61% of control
kinase inhibition (GSK3α(h); 50 μg/ml): 51% of control
kinase inhibition (GSK3α(h); 100 μg/ml): 43% of control
kinase inhibition (MSSK1(h); 1 μg/ml): 105% of control
kinase inhibition (MSSK1(h); 5 μg/ml): 84% of control
kinase inhibition (MSSK1(h); 25 μg/ml): 43% of control
kinase inhibition (MSSK1(h); 50 μg/ml): 50% of control
kinase inhibition (MSSK1(h); 100 μg/ml): 39% of control
kinase inhibition (EGFR(T790M)(h); 1 μg/ml): 106% of control
kinase inhibition (EGFR(T790M)(h); 5 μg/ml): 104% of control
kinase inhibition (EGFR(T790M)(h); 25 μg/ml): 104% of control
kinase inhibition (EGFR(T790M)(h); 50 μg/ml): 100% of control
kinase inhibition (EGFR(T790M)(h); 100 μg/ml): 102% of control
kinase inhibition (Hck(h); 1 μg/ml): 103% of control
kinase inhibition (Hck(h); 5 μg/ml): 88% of control
kinase inhibition (Hck(h); 25 μg/ml): 76% of control
kinase inhibition (Hck(h); 50 μg/ml): 62% of control
kinase inhibition (Hck(h); 100 μg/ml): 42% of control
kinase inhibition (PI 3-Kinaseβ(h); 1 μg/ml): 99% of control
kinase inhibition (PI 3-Kinaseβ(h); 5 μg/ml): 95% of control
kinase inhibition (PI 3-Kinaseβ(h); 25 μg/ml): 75% of control
kinase inhibition (PI 3-Kinaseβ(h); 50 μg/ml): 47% of control
kinase inhibition (PI 3-Kinaseβ(h); 100 μg/ml): 28% of control
kinase inhibition (MRCKβ(h); 1 μg/ml): 110% of control
kinase inhibition (MRCKβ(h); 5 μg/ml): 114% of control
kinase inhibition (MRCKβ(h); 25 μg/ml): 109% of control
kinase inhibition (MRCKβ(h); 50 μg/ml): 104% of control
kinase inhibition (MRCKβ(h); 100 μg/ml): 99% of control
kinase inhibition (CDK2/cyclinE(h); 1 μg/ml): 95% of control
kinase inhibition (CDK2/cyclinE(h); 5 μg/ml): 101% of control
kinase inhibition (CDK2/cyclinE(h); 25 μg/ml): 93% of control
kinase inhibition (CDK2/cyclinE(h); 50 μg/ml): 71% of control
kinase inhibition (CDK2/cyclinE(h); 100 μg/ml): 54% of control
kinase inhibition (Abl(Q252H)(h); 1 μg/ml): 96% of control
kinase inhibition (Abl(Q252H)(h); 5 μg/ml): 96% of control
kinase inhibition (Abl(Q252H)(h); 25 μg/ml): 66% of control
kinase inhibition (Abl(Q252H)(h); 50 μg/ml): 68% of control
kinase inhibition (Abl(Q252H)(h); 100 μg/ml): 47% of control
kinase inhibition (BrSK2(h); 1 μg/ml): 99% of control
kinase inhibition (BrSK2(h); 5 μg/ml): 90% of control
kinase inhibition (BrSK2(h); 25 μg/ml): 84% of control
kinase inhibition (BrSK2(h); 50 μg/ml): 83% of control
kinase inhibition (BrSK2(h); 100 μg/ml): 72% of control
kinase inhibition (Tie2(R849W)(h); 1 μg/ml): 91% of control
kinase inhibition (Tie2(R849W)(h); 5 μg/ml): 53% of control
kinase inhibition (Tie2(R849W)(h); 25 μg/ml): 48% of control
kinase inhibition (Tie2(R849W)(h); 50 μg/ml): 43% of control
kinase inhibition (Tie2(R849W)(h); 100 μg/ml): 46% of control
kinase inhibition (CaMKIIβ(h); 1 μg/ml): 103% of control
kinase inhibition (CaMKIIβ(h); 5 μg/ml): 106% of control
kinase inhibition (CaMKIIβ(h); 25 μg/ml): 95% of control
kinase inhibition (CaMKIIβ(h); 50 μg/ml): 83% of control
kinase inhibition (CaMKIIβ(h); 100 μg/ml): 66% of control
